In patent publication US9809626B2, “Antibacterial agents: salinamide derivatives” (priority 2012, dated 2017):
In brackets after ≈: the same amount, converted by molar mass. Read-outs that look alike come from different tables or passages of the source. Numbered stars: 1 amine (or outer) side, 2 acyl side, 3 side chain; on linkers, the order of the positions; unused ones are H or OH. Bridge positions count the residues as written; N and C are the ends. Square brackets hold non-standard residues; d marks the D form. Peptide text beside a SMILES is read from it. * marks the point of attachment. X2 = C[C@@H](Oc1ccc([C@H](N[*:1])C(=O)[*:2])cc1)[C@](O)(/C=C/C(=O)[*:3])CBr; X3 = C[C@@H](Oc1ccc([C@H](N[*:1])C(=O)[*:2])cc1)C(O)(/C=C/C(=O)[*:3])CCl; X1 = C[C@@H](Oc1ccc([C@H](N[*:1])C(=O)[*:2])cc1)C1(/C=C/C(=O)[*:3])CO1; Pentanoyl(2R-Me,3R-OH,4-Me) = CC(C)[C@@H](O)[C@@H](C)C(=O)*; d(aIle) = CC[C@H](C)[C@@H](N)C(=O)O; d(aThr) = C[C@@H](O)[C@@H](N)C(=O)O; NMeF = CN[C@@H](Cc1ccccc1)C(=O)O

Experiments:
[1] = test system: Haemophilus influenzae ATCC49247; assay: Antibacterial activity, broth microdilution; type: cell-based; conditions: for antibacterial activity against Haemophilus influenzae: Gram-negative bacterial pathogen
From the text: (§1) Antibacterial activity was quantified using broth microdilution [Clinical and Laboratory Standards Institute (CLSI/NCCLS), Methods for Dilution Antimicrobial Susceptibility Tests for Bacteria That Grow Aerobically; Approved Standard, Eighth Edition. CLIS Document M07-A8 (CLIS, Wayne Pa.), 2009]. Assays with Enterobacter cloacae ATCC13047, Pseudomonas aeruginosa ATCC10145, and Escherichia coli D21f2to1C, employed a starting cell density of 2-5×10^5 cfu/ml, Mueller Hinton II cation adjusted broth (BD Biosciences, Inc.), and an air atmosphere. Assays with Haemophilus influenzae ATCC49247 and Neisseria gonorrhoeae ATCC19424 employed a starting cell density of 2-5×10^5 cfu/ml, Haemophilus Test Medium broth (Barry et al., 1993) and a 5% CO2/95% air atmosphere. MIC50 was defined as the minimal concentration resulting in ≧50% inhibition of bacterial growth.

[2] = test system: Enterobacter cloacae ATCC13047; assay: Antibacterial activity, broth microdilution; type: cell-based; conditions: for MIC50: Enterobacter cloacae, ATCC13047, minimal concentration resulting in ≧50% inhibition of bacterial growth, read-out: MIC50 Enterobacter cloacae ATCC 13047; for antibacterial activity against Enterobacter cloacae: Gram-negative bacterial pathogen
From the text: as §1

[3] = test system: Escherichia coli D21f2tolC; assay: Antibacterial activity, broth microdilution; type: cell-based; conditions: for MIC50: Escherichia coli, D21F2TOLC, read-out: MIC50 Escherichia coli D21f2tolC
From the text: as §1

[4] = test system: Pseudomonas aeruginosa ATCC10145; assay: Antibacterial activity, broth microdilution; type: cell-based; conditions: for antibacterial activity against Pseudomonas aeruginosa: Gram-negative bacterial pathogen
From the text: as §1

[5] = test system: Neisseria gonorrhoeae ATCC19424; assay: Antibacterial activity, broth microdilution; type: cell-based; conditions: for antibacterial activity against Neisseria gonorrhoeae: Gram-negative bacterial pathogen
From the text: as §1

[6] = target: T1, Escherichia coli RNAP holoenzyme (Escherichia coli, UniProt P0A8T7+P0A8V2); assay: Radiochemical RNAP assay, Escherichia coli RNAP; type: biochemical
T1 construct: made in house
Protocol: (§2) Radiochemical RNAP assays with Escherichia coli RNAP and Staphylococcus aureus RNAP were performed as follows: Reaction mixtures contained (10 μl): 0-100 μM test compound, bacterial RNAP holoenzyme [75 nM Escherichia coli RNAP holoenzyme (prepared as in Mukhopadhyay et al., Meths. Enzymol. 371:144-159, 2003) or 75 nM Staphylococcus aureus RNAP core enzyme and 300 nM Staphylococcus aureus σ^A (prepared as in Srivastava et al., Curr. Opin. Microbiol. 14:532-543, 2011)], 20 nM DNA fragment N25-lacUV5-14 [positions −100 to −1 of the bacteriophage T5 N25 promoter followed by positions +1 to +29 of the lacUV5(+10A; +15C) promoter; prepared by PCR amplification of a synthetic nontemplate-strand oligodeoxyribonucleotide], 0.5 mM ApA, 100 μM □[α^32P]UTP (0.2 Bq/fmol), 100 μM ATP, and 100 μM GTP in TB (50 mM Tris-HCl, pH 7.9, 100 mM KCl, 10 mM MgCl2, 1 mM DTT, 100 μg/ml bovine serum albumin, and 5% glycerol). […] Products were applied to 7 M urea 15% polyacrylamide (19:1 acrylamide:bisacrylamide) slab gels (Bio-Rad), electrophoresed in TBE (90 mM Tris-borate, pH 8.0, and 2 mM EDTA), and analyzed by storage-phosphor scanning (Typhoon; GE Healthcare, Inc.).
(§3) Half-maximal inhibitory concentrations (IC50s) were calculated by non-linear regression in SigmaPlot (SPSS, Inc.).

[7] = test system: Vero E6 cells (ATCC CRL1586); assay: Cytotoxicity to mammalian cells in culture (CellTiter96 assay); type: cell-based; conditions: for MIC50 Vero E6 ATCC CRL1586: Table 3
From the text: MICs for mammalian cells (Vero E6) in culture were quantified using CellTiter96 assay (Promega. Inc.; procedures as specified by the manufacturer).

[8] = test system: human RNAP I, II, and III; assay: Radiochemical assay with human RNAP I, II, and III (HeLaScribe Nuclear Extract); type: biochemical
Protocol: Radiochemical assays with human RNAP I, II, and III were performed essentially as described [Sawadogo and Roeder, Cell 43:165-75, 1985]. Reaction mixtures contained (20 μl): 0-100 μM test compound, 8 U HeLaScribe Nuclear Extract (Promega, Inc.), 1 μg human placental DNA (Sigma-Aldrich), 400 μM ATP, 400 μM [α^32P]UTP (0.11 Bq/fmol), 400 μM CTP, 400 μM GTP, 50 mM Tris-HCl, pH 8.0, 7 mM HEPES-NaOH, 70 mM (NH4)2SO4, 50 mM KCl, 12 mM MgCl2, 5 mM DTT, 0.1 mM EDTA, 0.08 mM phenylmethylsulfonyl fluoride, and 16% glycerol. Reaction components other than DNA and NTPs were pre-incubated 10 min at 30° C., DNA was added and reaction mixtures were incubated 15 min at 30° C., NTPs were added and reaction mixtures were incubated 60 min at 30° C. Reaction mixtures were spotted on DE81 filter discs (Whatman, Inc.; pre-wetted with water) and incubated 1 min at room temperature. Filters were washed with 3×3 ml Na2HPO4, 2×3 ml water, and 3 ml ethanol, using a filter manifold (Hoefer, Inc.). Filters were placed in scintillation vials containing 10 ml Scintiverse BD Cocktail (Thermo Fisher, Inc.), and radioactivity was quantified by scintillation counting (LS6500; Beckman-Coulter, Inc.).
as §3

[9] = target: T2, Staphylococcus aureus RNAP (Staphylococcus aureus, UniProt P47768+Q2G0N5); assay: Radiochemical RNAP assay, Staphylococcus aureus RNAP; type: biochemical
T2 construct: made in house
Protocol: as §2, §3

[10] = target: Escherichia coli RNAP σ70 holoenzyme (Escherichia coli, UniProt P0A8T7+P0A8V2); assay: Fluorescence-detected RNAP assay, Escherichia coli RNAP; type: biochemical; conditions: for IC50: fluorescent-detected RNAP assays
Sequence of Escherichia coli RNAP σ70 holoenzyme (P0A8T7 whole entry, the tested form may be a part): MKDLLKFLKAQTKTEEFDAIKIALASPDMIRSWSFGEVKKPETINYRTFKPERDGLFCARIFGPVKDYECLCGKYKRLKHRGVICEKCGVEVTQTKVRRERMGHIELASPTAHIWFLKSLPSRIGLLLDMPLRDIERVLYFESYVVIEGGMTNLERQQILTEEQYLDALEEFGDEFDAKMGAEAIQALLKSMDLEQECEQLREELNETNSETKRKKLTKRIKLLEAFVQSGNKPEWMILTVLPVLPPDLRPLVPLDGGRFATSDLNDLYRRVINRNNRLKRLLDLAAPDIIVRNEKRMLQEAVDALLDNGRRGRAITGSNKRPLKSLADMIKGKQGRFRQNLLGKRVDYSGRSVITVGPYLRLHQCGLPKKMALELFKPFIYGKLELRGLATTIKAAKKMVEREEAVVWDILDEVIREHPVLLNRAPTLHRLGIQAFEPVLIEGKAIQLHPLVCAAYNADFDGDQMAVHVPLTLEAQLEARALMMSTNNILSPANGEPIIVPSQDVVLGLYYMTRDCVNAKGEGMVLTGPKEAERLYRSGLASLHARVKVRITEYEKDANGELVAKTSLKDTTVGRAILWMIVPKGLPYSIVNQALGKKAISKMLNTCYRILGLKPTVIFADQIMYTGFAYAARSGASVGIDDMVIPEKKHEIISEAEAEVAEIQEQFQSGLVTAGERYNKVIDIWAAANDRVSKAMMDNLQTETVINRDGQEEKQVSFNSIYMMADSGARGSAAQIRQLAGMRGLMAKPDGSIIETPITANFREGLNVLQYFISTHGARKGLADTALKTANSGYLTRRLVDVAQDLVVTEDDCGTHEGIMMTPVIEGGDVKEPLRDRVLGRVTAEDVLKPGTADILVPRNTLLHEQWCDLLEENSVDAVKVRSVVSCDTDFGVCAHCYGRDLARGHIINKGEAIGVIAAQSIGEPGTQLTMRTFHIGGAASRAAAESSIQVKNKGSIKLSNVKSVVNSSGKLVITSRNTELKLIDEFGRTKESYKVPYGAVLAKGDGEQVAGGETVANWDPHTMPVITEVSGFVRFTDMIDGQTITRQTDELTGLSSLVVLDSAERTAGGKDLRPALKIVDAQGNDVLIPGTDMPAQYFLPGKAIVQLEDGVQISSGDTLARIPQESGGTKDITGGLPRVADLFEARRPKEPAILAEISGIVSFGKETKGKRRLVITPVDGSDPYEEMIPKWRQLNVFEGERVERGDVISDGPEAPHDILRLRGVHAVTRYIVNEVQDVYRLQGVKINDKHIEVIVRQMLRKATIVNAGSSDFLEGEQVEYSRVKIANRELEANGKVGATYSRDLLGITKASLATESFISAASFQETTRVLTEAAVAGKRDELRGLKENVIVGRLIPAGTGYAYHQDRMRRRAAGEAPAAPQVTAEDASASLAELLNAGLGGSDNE
Sequence of Escherichia coli RNAP σ70 holoenzyme (P0A8V2 whole entry, the tested form may be a part): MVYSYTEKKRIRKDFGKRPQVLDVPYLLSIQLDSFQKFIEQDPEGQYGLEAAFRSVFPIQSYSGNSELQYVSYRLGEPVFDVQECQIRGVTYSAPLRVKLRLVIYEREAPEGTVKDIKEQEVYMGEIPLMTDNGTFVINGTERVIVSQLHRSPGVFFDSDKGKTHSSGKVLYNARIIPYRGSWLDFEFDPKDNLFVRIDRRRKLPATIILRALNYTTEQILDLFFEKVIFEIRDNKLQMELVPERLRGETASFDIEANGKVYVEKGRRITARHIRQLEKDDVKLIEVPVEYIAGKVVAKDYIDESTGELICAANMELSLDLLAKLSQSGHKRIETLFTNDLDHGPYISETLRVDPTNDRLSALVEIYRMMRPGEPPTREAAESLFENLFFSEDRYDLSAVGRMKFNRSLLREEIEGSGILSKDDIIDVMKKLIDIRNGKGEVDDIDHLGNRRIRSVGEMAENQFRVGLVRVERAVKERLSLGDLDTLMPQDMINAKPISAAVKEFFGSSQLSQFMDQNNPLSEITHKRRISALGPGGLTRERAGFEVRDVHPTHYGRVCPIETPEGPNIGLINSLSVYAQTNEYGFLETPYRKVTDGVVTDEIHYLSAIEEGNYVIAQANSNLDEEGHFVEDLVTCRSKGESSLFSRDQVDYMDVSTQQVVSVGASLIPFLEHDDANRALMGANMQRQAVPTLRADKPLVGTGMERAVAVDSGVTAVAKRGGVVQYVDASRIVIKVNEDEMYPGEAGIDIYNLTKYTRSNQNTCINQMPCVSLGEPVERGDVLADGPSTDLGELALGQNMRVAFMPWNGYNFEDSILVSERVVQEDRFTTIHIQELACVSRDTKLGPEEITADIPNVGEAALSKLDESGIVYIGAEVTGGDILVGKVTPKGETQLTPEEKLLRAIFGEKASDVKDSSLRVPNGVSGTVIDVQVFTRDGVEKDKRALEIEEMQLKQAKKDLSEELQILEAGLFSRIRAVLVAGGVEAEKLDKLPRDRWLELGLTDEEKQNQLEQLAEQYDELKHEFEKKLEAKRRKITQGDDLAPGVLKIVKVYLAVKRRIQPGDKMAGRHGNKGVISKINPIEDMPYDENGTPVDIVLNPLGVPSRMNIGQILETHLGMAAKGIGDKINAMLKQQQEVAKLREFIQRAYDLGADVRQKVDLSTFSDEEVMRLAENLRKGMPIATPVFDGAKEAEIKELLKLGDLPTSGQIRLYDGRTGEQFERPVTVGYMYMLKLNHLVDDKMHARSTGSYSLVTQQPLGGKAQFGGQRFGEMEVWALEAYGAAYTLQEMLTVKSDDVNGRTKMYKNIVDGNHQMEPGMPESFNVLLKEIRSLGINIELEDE
Sequence of Escherichia coli RNAP σ70 holoenzyme (P0A7Z4 whole entry, further chain, the tested form may be a part): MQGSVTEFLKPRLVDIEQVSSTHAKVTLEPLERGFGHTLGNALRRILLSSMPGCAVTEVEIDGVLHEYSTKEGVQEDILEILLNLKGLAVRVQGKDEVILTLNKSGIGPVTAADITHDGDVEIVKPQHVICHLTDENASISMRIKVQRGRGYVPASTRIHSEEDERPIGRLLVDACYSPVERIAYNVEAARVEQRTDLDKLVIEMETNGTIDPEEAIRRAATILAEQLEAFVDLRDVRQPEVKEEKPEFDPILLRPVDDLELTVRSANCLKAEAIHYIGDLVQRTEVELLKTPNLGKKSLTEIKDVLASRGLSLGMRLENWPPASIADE
Sequence of Escherichia coli RNAP σ70 holoenzyme (P0A800 whole entry, further chain, the tested form may be a part): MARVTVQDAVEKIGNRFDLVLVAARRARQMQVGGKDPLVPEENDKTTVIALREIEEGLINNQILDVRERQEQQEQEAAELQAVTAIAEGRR
Sequence of Escherichia coli RNAP σ70 holoenzyme (P00579 whole entry, further chain, the tested form may be a part): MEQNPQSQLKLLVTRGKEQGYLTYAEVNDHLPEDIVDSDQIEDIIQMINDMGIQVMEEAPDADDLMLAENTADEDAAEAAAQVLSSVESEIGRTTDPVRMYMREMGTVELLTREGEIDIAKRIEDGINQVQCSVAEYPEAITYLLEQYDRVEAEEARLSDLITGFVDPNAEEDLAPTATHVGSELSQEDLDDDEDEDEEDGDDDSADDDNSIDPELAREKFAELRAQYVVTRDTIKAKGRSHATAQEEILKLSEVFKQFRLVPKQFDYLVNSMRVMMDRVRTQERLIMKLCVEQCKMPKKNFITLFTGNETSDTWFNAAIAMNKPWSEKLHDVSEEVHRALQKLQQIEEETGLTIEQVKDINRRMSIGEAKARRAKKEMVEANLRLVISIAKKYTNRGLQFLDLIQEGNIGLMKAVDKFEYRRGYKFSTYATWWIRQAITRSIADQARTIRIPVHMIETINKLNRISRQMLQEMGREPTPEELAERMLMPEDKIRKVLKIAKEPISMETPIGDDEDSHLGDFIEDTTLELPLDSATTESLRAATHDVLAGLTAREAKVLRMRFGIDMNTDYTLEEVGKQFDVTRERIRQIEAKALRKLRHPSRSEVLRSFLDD
Protocol: Fluorescence-detected RNAP assays with Escherichia coli RNAP were performed by a modification of the procedure of Kuhlman et al., Anal. Biochem. 324:183-190, 2004]. Reaction mixtures contained (20 μl): 0-100 nM test compound, 75 nM Escherichia coli RNAP σ^70 holoenzyme, 20 nM 384 bp DNA fragment containing the bacteriophage T4 N25 promoter, 100 μM ATP, 100 μM GTP, 100 μM UTP, 100 μM CTP, 50 mM Tris-HCl, pH 8.0, 100 mM KCl, 10 mM MgCl2, 1 mM DTT, 10 μg/ml bovine serum albumin, and 5.5% glycerol. Reaction components other than DNA and NTPs were pre-incubated for 10 min at 37° C. Reactions were carried out by addition of DNA and incubation for 5 min at 37° C., followed by addition of NTPs and incubation for 60 min at 37° C. DNA was removed by addition of 1 μl 5 mM CaCl2 and 2 U DNasel (Ambion, Inc.), followed by incubation for 90 min at 37° C. RNA was quantified by addition of 100 μl RiboGreen RNA Quantitation Reagent (Invitrogen, Inc.; 1:500 dilution in Tris-HCl, pH 8.0, 1 mM EDTA), followed by incubation for 10 min at 25° C., followed by measurement of fluorescence intensity [excitation wavelength=485 nm and emission wavelength=535 nm; QuantaMaster QM1 spectrofluorometer (PTI, Inc.)].
as §3

[11] = target: RNAP-promoter open complex (Escherichia coli, UniProt P0A8T7+P0A8V2); assay: Formation of the RNAP-promoter open complex; type: biochemical
[12] = test system: Gram-positive bacterial pathogens; conditions: reported previously (Trischman et al. 1994; Moore et al. 1999); cited from earlier work
[13] = test system: bacterial cells in culture; conditions: Ebright et al., WO/2012/129173; cited from earlier work
[14] = test system: rifamycin-, CBR703-, streptolydigin-, myxopyronin- and lipiarmycin-resistant mutants; conditions: disclosed herein
RNAP = assay: Mechanism of transcription inhibition (nucleotide addition, trigger loop, NTP competition); type: biochemical
[15] = test system: Gram-positive and Gram-negative bacterial RNAP; conditions: reported previously (Miao et al. 1997); cited from earlier work
[16] = test system: rifamycin-, CBR703-, streptolydigin-, myxopyronin- and lipiarmycin-resistant mutants; conditions: Ebright et al., WO/2012/129173; cited from earlier work
[17] = test system: Gram-positive and Gram-negative bacterial RNAP; assay: Inhibition of bacterial RNAP in vitro (statement); type: biochemical; conditions: disclosed herein
[18] = read-out: IC50 human RNAP I/II/III

Row | SMILES | MIC50 [2] | MIC50 [3] | MIC50 Vero E6 ATCC CRL1586 [7] | IC50 [8, 18] | antibacterial activity against Haemophilus influenzae [1] | antibacterial activity against Enterobacter cloacae [2] | antibacterial activity against Pseudomonas aeruginosa [4] | antibacterial activity against Neisseria gonorrhoeae [5] | antibacterial activity against Gram-positive bacterial pathogens [12] | inhibition of growth of mammalian cells in culture [7] | inhibition of human RNAP I, II, and III [8] | IC50 [10] | further results
1 | CC[C@H](C)[C@H]1NC(=O)[C@@H](NC(=O)[C@H](C)[C@H](O)C(C)C)[C@@H](C)OC(=O)[C@@H]2COC(=O)CNC(=O)/C=C/[C@](O)(CBr)[C@@H](C)Oc3ccc(cc3)[C@H](NC1=O)C(=O)N(C)[C@@H](Cc1ccccc1)C(=O)N[C@H]([C@@H](C)O)C(=O)N2 [Sal-Br (3), Sal-Br] ({Pentanoyl(2R-Me,3R-OH,4-Me)}-T[d(aIle)][X2][NMeF][d(aThr)]S; ester 1-C; linker 3-6 via G) | 1.56 µg/mL (≈ 1.42 µM) | 0.049 µg/mL (≈ 0.0445 µM) | >100 µg/mL | > 100000 nM | – | – | – | – | – | – | – | – | MIC50 ([1]; Haemophilus influenzae, ATCC49247, minimal concentration resulting in ≧50% inhibition of bacterial growth): 6.25 µg/mL (≈ 5.68 µM); antibacterial activity ([3]; refers to Table 2 (E. coli D21f2tolC and Enterobacter cloacae)): essentially full; MIC50 ([4]; Pseudomonas aeruginosa, ATCC10145, minimal concentration resulting in ≧50% inhibition of bacterial growth): 50 µg/mL (≈ 45.4 µM); MIC50 ([5]; Neisseria gonorrhoeae, ATCC19424, minimal concentration resulting in ≧50% inhibition of bacterial growth): 1.56 µg/mL (≈ 1.42 µM); IC50 [6]: 780 ± 50 nM; MIC Vero E6 cells ([7]; growth of mammalian cells in culture): > 50 µg/mL; IC50 ([8]; radiochemical assay, read-out: IC50 human RNAP I, II, and III): > 100000 nM; IC50 [9]: 540 ± 40 nM; RNAP-inhibitory activity ([10]; refers to Table 1): essentially full
2 | CC[C@H](C)[C@H]1NC(=O)[C@@H](NC(=O)[C@H](C)[C@H](O)C(C)C)[C@@H](C)OC(=O)[C@@H]2COC(=O)CNC(=O)/C=C/C3(CO3)[C@@H](C)Oc3ccc(cc3)[C@H](NC1=O)C(=O)N(C)[C@@H](Cc1ccccc1)C(=O)N[C@H]([C@@H](C)O)C(=O)N2 (stereo partly drawn) [SalA (1), salinamide A] ({Pentanoyl(2R-Me,3R-OH,4-Me)}-T[d(aIle)][X1][NMeF][d(aThr)]S; ester 1-C; linker 3-6 via G) | 1.56 µg/mL (≈ 1.53 µM) | 0.024 µg/mL (≈ 0.0235 µM) | >100 µg/mL | > 100000 nM | exhibit antibacterial activity | exhibit antibacterial activity | exhibit antibacterial activity | exhibit antibacterial activity | exhibit antibacterial activity | do not detectably inhibit | do not detectably inhibit | 1000 nM | inhibition of formation of the RNAP-promoter open complex in transcription initiation [11]: does not inhibit; inhibition of RNA synthesis in bacterial cells in culture [13]: inhibits; cross-resistance of streptolydigin-resistant, myxopyronin-resistant, and lipiarmycin-resistant mutants with Sal [14]: do not exhibit cross-resistance; inhibition of nucleotide addition in transcription initiation and transcription elongation (RNAP): inhibits; inhibition of wild-type RNAP versus RNAP-derivative having a deletion of the trigger loop (RNAP): equal extents; mode of transcription inhibition with respect to NTP substrate (RNAP): noncompetitive; inhibition of Gram-positive and Gram-negative bacterial RNAP in vitro [15]: inhibits; cross-resistance of CBR703-resistant mutants to Sal [16]: not cross-resistant; cross-resistance of rifamycin-resistant mutants to Sal [16]: not cross-resistant
3 | CC[C@H](C)[C@H]1NC(=O)[C@@H](NC(=O)[C@H](C)[C@H](O)C(C)C)[C@@H](C)OC(=O)[C@@H]2COC(=O)CNC(=O)/C=C/C(O)(CCl)[C@@H](C)Oc3ccc(cc3)[C@H](NC1=O)C(=O)N(C)[C@@H](Cc1ccccc1)C(=O)N[C@H]([C@@H](C)O)C(=O)N2 (stereo partly drawn) [SalB (2), salinamide B] ({Pentanoyl(2R-Me,3R-OH,4-Me)}-T[d(aIle)][X3][NMeF][d(aThr)]S; ester 1-C; linker 3-6 via G) | 6.25 µg/mL (≈ 5.92 µM) | 0.098 µg/mL (≈ 0.0927 µM) | >100 µg/mL | > 100000 nM | exhibit antibacterial activity | exhibit antibacterial activity | exhibit antibacterial activity | exhibit antibacterial activity | exhibit antibacterial activity | do not detectably inhibit | do not detectably inhibit | 1000 nM | inhibition of Gram-positive and Gram-negative bacterial RNAP in vitro [17]: inhibits
